Each block holds one compound with its values, some of them ahead of it.
Legend:
[1] = Hydroformylation reaction rate of rhodium/ligand catalyst; details: 90° C., 300 ppm Rh, ligand/rhodium 20/1
Protocol: […] A mixture of 1,2,3,6-tetrahydrobenzaldehyde (6 grams) and octane (4 grams, internal standard) was added to the autoclave. The reaction rate was determined by gas chromatographic analyses of the samples taken during the course of reaction.
The procedure described in Example 1 was repeated with the modification of using Ligands B-F in place of Ligand A. The reaction rates for Ligands B-F are summarized in Table 1.

[2] = Relative hydroformylation reaction rates with Ligands C and G-J
Protocol: […]. A mixture of 1,2,3,6-tetrahydrobenzaldehyde (6 grams) and octane (4 grams, internal standard) was added to the autoclave. The reaction rate was determined by gas chromatographic analyses of the samples taken during the course of reaction.

[3] = Partition of polar hydroformylation products, acetonitrile/hexane (GC); format: physicochemical; details: hexane/acetonitrile equal volumes
Protocol: The efficiency of the phase separation can be measured by a partition coefficient Kp of the one or more cyclic products which is defined as follows: [formula]
Solutions of polar hydroformylation products were prepared in acetonitrile. To each solution was added an equal volume of hexane, the mixture was vigorously shaken, allowed to settle and phase separate. The two phases were analyzed for polar aldehydes by gas chromatography.

[4] = Miscibility of reaction products with toluene (Comparative Example); format: physicochemical; details: reaction at 100° C. for 24 hours; no spontaneous phase separation
Protocol: The reaction was carried out at 100° C. for 24 hours. No spontaneous phase separation was observed upon the reaction completion.

[5] = hexane, 100 psi syngas (CO/H2 1:1)
[6] = Tetraglyme, 90° C., L/Rh ratio 20

Compound: CCC(C)(C)c1ccc(OP(Oc2ccc(C(C)(C)CC)cc2C(C)(C)CC)Oc2ccc(C(C)(C)CC)cc2C(C)(C)CC)c(C(C)(C)CC)c1 [Ligand D]
reaction rate [1, 5]: 3.6 mol/L-hr

Compound: CC(C)(C)c1ccc(OP(Oc2ccc(C(C)(C)C)cc2C(C)(C)C)Oc2ccc(C(C)(C)C)cc2C(C)(C)C)c(C(C)(C)C)c1 [Ligand C]
reaction rate [1, 5]: 4.0 mol/L-hr
reaction rate ([1]; toluene in place of hexane, 100 psi syngas): 4.4 mol/L-hr
Relative Rate [2, 6]: 1

Compound: CCCCCC(C)(C)c1ccc(OP(Oc2ccc(C(C)(C)CCCCC)cc2C(C)(C)CCCCC)Oc2ccc(C(C)(C)CCCCC)cc2C(C)(C)CCCCC)c(C(C)(C)CCCCC)c1 [Ligand E]
reaction rate [1, 5]: 3.7 mol/L-hr

Compound: O=S(=O)(O)c1cccc(P(C2CCCCC2)C2CCCCC2)c1 [Ligand J]
Relative Rate ([2]; 1-Methyl-2-pyrrolidinone, 120° C., L/Rh ratio 5): 0.14

Kpartition of polar product ([3]; 5 wt. %): 38
Kpartition of polar product ([3]; 10 wt. %): 34
Kpartition of polar product ([3]; 20 wt. %): 35
Compound: 1,3- and 1,4-cyclohexanedicarboxaldehyde

Compound: COc1ccc(Op2oc3c(C(C)(C)C)cc(OC)cc3c3cc(OC)cc(C(C)(C)C)c3o2)c(C(C)(C)C)c1 [Ligand G]
Relative Rate [2, 6]: 0.46

Compound: CC(C)(C)c1ccccc1OP(Oc1ccccc1C(C)(C)C)Oc1ccccc1C(C)(C)C [Ligand B]
reaction rate [1, 5]: 3.4 mol/L-hr

Compound: C1CCC(P(C2CCCCC2)C2CCCCC2)CC1 [Ligand I]
Relative Rate ([2]; Tetraglyme, 120° C., L/Rh ratio 5): 0.17

Kpartition of polar product ([3]; 10 wt. %): 69
Compound: 3-cyano-1-cyclohexanecarboxaldehyde and 4-cyano-1-cyclohexanecarboxaldehyde [cyanocyclohexanecarboxaldehyde]

miscibility with toluene [4]: completely miscible with toluene
Compound: tricyclodecane dialdehydes

Compound: CC(C)(c1ccccc1)c1ccc(OP(Oc2ccc(C(C)(C)c3ccccc3)cc2C(C)(C)c2ccccc2)Oc2ccc(C(C)(C)c3ccccc3)cc2C(C)(C)c2ccccc2)c(C(C)(C)c2ccccc2)c1 [Ligand A]
reaction rate [1, 5]: 2.5 mol/L-hr

Compound: CCCCCCCCCC(C)(C)c1ccc(OP(Oc2ccc(C(C)(C)CCCCCCCCC)cc2C(C)(C)CCCCCCCCC)Oc2ccc(C(C)(C)CCCCCCCCC)cc2C(C)(C)CCCCCCCCC)c(C(C)(C)CCCCCCCCC)c1 [Ligand F]
reaction rate [1, 5]: 3.3 mol/L-hr

Compound: CC(C)(C)c1cc(-c2cc(C(C)(C)C)cc(C(C)(C)C)c2Op2oc3ccccc3c3ccccc3o2)c(Op2oc3ccccc3c3ccccc3o2)c(C(C)(C)C)c1 [Ligand H]
Relative Rate ([2]; Tetraglyme, 90° C., L/Rh ratio 4): 0.34

— patent US6252121A, “Metal-ligand complex catalyzed processes” (Union Carbide Chemicals & Plastics Technology Corporation, priority 1999, dated 2001)
